In patent publication US8029770B2 (Rutgers, The State University, priority 2003, dated 2011):
Entries after “also recorded” stand apart in the source; their conditions may differ. Read-outs that look alike come from different tables or passages of the source. Marks after values point to notes of the source that are not given here.

How the values were obtained:
[1] = tested on: apoptotic sunburn cells in the epidermis of C57/BL/6J p53(−/−) mice; test: UVB-induced apoptotic sunburn cells in C57/BL/6J p53(−/−) mice, topical caffeine; assay type: in vivo, mouse
Method: The time course for apoptosis was determined by utilizing morphologically distinct sunburn cells as the marker for apoptosis. […] Accordingly, studies with a C57/BL/6J mouse were performed with a 60 mJ/cm^2 dose of UVB.
Measurement of apoptotic sunburn cells. Identification of apoptoic sunburn cells was based morphologically on cell shrinkage and nuclear condensation due to fragmentation of the cells. […] The percentage of apoptotic sunburn cells in the epidermis (basal plus suprabasal layers) was calculated from the number of these cells per 100 cells counted from the entire 20 mm length of epidermis for each skin section.

[2] = tested on: UVB-induced skin lesions in SKH-1 mice; test: Prevention of UVB-induced skin (sunburn) lesions, sunscreen effect; assay type: in vivo, mouse; details: 4.8% caffeine or 8.0% caffeine sodium benzoate (24 μmoles) in 100 mg DERMABASE 30 minutes before UVB 180 mJ/cm^2 on two consecutive days (FIG. 2)
Method: The areas (mm^2) and the intensity of red color in UVB-induced skin lesion were estimated semi-quantitatively 5 days after first UVB treatment. The lesion index were calculated as the lesion area multiplied by the arbitrary intensity: 0, no lesion; 1 barely detectable red lesion; 2 moderate red lesion, and 3, bright red lesion.
Outdoor occupational human exposure to UVB or a sunbathing exposure in the summer has been reported to range from 50-100 mJ/cm^2 per day (Larko, et al. (1983) Clin. Exp. Dermatol. 8:279-285; Diffey (1991) Phys. Med. Biol. 36:299-328).

phospho-Chk2 (Ser387) = test: Epidermal phospho-Chk2 (Ser387) in UVB-treated mice, western blot; assay type: in vivo, mouse; details: topical immediately after UVB 30 mJ/cm2; 6 hours
[3] = Weight of mouse during topical treatment of UVB-pretreated high risk SKH-1 mice; assay type: in vivo
Method: Female SKH-1 mice were treated with 30 mJ/cm^2 of UVB twice a week for 20 weeks.

[4] = tested on: apoptotic sunburn cells in the epidermis of SKH-1 mice; test: UVB-induced apoptotic sunburn cells in the epidermis of SKH-1 mice after topical application; assay type: in vivo, mouse
Method: Chemicals and Animals. […] Female SKH-1 hairless mice (6 to 7 weeks old) were purchased from the Charles River Breeding Laboratories, and the animals were kept in an animal facility for at least one week before use at 7 to 8 weeks of age. Mice were given water and PURINA® Laboratory CHOW® 5001 diet from Ralston-Purina (St. […] For the analysis conducted herein, 5 mice were used per group. Treatment of Mice with UVB. […] The radiation was further calibrated with a model IL-1700 research radiometer/photometer (International Light, Newburyport, Mass.). Measurement of apoptotic sunburn cells. Identification of apoptoic sunburn cells was based morphologically on cell shrinkage and nuclear condensation due to fragmentation of the cells. […] Six hours after UVB, the animals were sacrificed and apoptotic sunburn cells in the epidermis were determined morphologically. […] Six hours after UVB, the animals were sacrificed and apoptotic sunburn cells in the epidermis were determined morphologically. […] Acetone Formulation. […] Six hours after UVB, the animals were sacrificed and apoptotic sunburn cells in the epidermis were determined morphologically. […] […] Formulations. […] Six hours after UVB the animals were sacrificed and apoptotic sunburn cells in the epidermis were determined morphologically. […] Six hours after UVB the animals were sacrificed and apoptotic sunburn cells in the epidermis were determined morphologically.

cyclin B1 = test: Epidermal cyclin B1 in UVB-treated mice, western blot and immunohistochemistry; assay type: in vivo, mouse
[5] = tested on: UVB-induced skin tumors in high risk SKH-1 mice

With `Cn1c(=O)c2c(ncn2C)n(C)c1=O` [Caffeine, caffeine] the “enhancement of UVB-induced increase in apoptotic sunburn cells” value ([1]; female p53(−/−), UVB 60 mJ/cm^2, 6 hours after UVB) was 563%, the “effect on apoptosis in non-UVB-treated epidermis” value ([1]; male p53(−/−), no UVB) was “no effect” and the “formation of UVB-induced sunburn (skin) lesions” value [2] was “inhibited the formation of sunburn lesions; also recorded: inhibited UVB-induced sunburn lesions”. For the same molecule, the “UVB-induced increase in the level of phospho-Chk2 (Ser387)” value (phospho-Chk2 (Ser387)) was “inhibited”, the “Weight of mouse” value ([3]; week 0, 1.2% CF in DERMABASE) was 30.3 ± 0.5 g and the “Weight of mouse” value ([3]; week 0, 3.6% CF in DERMABASE) was 30.5 ± 0.6 g. The “Weight of mouse” value ([3]; week 5, 1.2% CF in DERMABASE) was 29.6 ± 0.5 g, the “Weight of mouse” value ([3]; week 5, 3.6% CF in DERMABASE) was 30.0 ± 0.5 g and the “Weight of mouse” value ([3]; week 7, 1.2% CF in DERMABASE) was 29.5 ± 0.5 g. The “Weight of mouse” value ([3]; week 7, 3.6% CF in DERMABASE) was 29.6 ± 0.5 g, the “Weight of mouse” value ([3]; week 9, 1.2% CF in DERMABASE) was 30.0 ± 0.4 g and the “Weight of mouse” value ([3]; week 9, 3.6% CF in DERMABASE) was 29.8 ± 0.5 g. The “Weight of mouse” value ([3]; week 11, 1.2% CF in DERMABASE) was 30.0 ± 0.5 g, the “Weight of mouse” value ([3]; week 11, 3.6% CF in DERMABASE) was 30.1 ± 0.5 g and the “Percent Sunburn Cells, UVB” value ([4]; 6.2 μmole (each) in 100 μL acetone:water (9:1) immediately after UVB 30 mJ/cm^2 and at 30 and 120 min, 6 h, mean ± S.E.) was 0.64 ± 0.15%. For the same molecule, the “Percent Apoptotic Sunburn Cells” value ([4]; 6.2 μmole in 100 μL acetone right after UVB 30 mJ/cm^2 and at 30 and 120 min, 6 h after UVB, mean ± S.E.) was 0.506 ± 0.013^a %, the “Percent Sunburn Cells, UVB” value ([4]; 100 mg formulation (2.4% caffeine or 4.0% caffeine sodium benzoate, 12.4 μmole, in DERMABASE; or commercial product) immediately after UVB 30 mJ/cm^2, 6 h) was 1.96 ± 0.20^a % and the “Percent Sunburn Cells, UVB” value ([4]; 0.6% Caffeine in 100 mg DERMABASE immediately after UVB 30 mJ/cm^2, 6 h) was 0.40 ± 0.18^a %. For the same molecule, the “Percent Sunburn Cells, UVB” value ([4]; 1.2% Caffeine in 100 mg DERMABASE immediately after UVB 30 mJ/cm^2, 6 h) was 0.58 ± 0.12^a %, the “Percent Sunburn Cells, UVB” value ([4]; 2.4% Caffeine in 100 mg DERMABASE immediately after UVB 30 mJ/cm^2, 6 h) was 0.58 ± 0.14^a % and the “Percent Sunburn Cells, UVB” value ([4]; 3.6% Caffeine in 100 mg DERMABASE immediately after UVB 30 mJ/cm^2, 6 h) was 0.82 ± 0.10^a %. The “Percent Sunburn Cells, UVB” value ([4]; 4.8% Caffeine in 100 mg DERMABASE immediately after UVB 30 mJ/cm^2, 6 h) was 0.96 ± 0.13^a %, the “enhancement of UVB-induced apoptosis in the epidermis, applied in DERMABASE” value ([4]; DERMABASE vehicle, equimolar amounts (Table 4)) was “more effective at enhancing UVB-induced apoptosis when applied to the skin in DERMABASE™ than when applied to the skin in acetone” and the “Percent Apoptotic Sunburn Cells” value ([4]; Exp-1, 6.2 μmole in acetone:water (9:1) x3 after UVB 30 mJ/cm^2, 6 h) was 0.51 ± 0.01%. For the same molecule, the “Percent Apoptotic Sunburn Cells” value ([4]; Exp-2, 6.2 μmole in acetone:water (9:1) x3 after UVB 30 mJ/cm^2, 6 h) was 0.48 ± 0.04%, the “% Induction” value ([4]; Table 1, vs acetone group, 6.2 μmole x3 after UVB 30 mJ/cm^2, 6 h) was 148% and the “% Induction” value ([4]; Table 2, vs acetone, 6.2 μmole in acetone:water (9:1)) was 205%. The “% Induction” value ([4]; Table 3 Exp-1, 6.2 μmole) was 155%, the “% Induction” value ([4]; Table 3 Exp-2, 6.2 μmole) was 129% and the “% Induction” value ([4]; Table 4, 0.6% Caffeine in DERMABASE) was 100%. For the same molecule, the “% Induction” value ([4]; Table 4, 1.2% Caffeine in DERMABASE) was 190%, the “% Induction” value ([4]; Table 4, 2.4% Caffeine in DERMABASE) was 190% and the “% Induction” value ([4]; Table 4, 3.6% Caffeine in DERMABASE) was 270%. For the same molecule, the “% Induction” value ([4]; Table 5, vs DERMABASE, 100 mg formulation after UVB) was 284%, the “percent of cyclin B1 positive cells in the epidermis” value (cyclin B1; UVB-treated mice, frozen sections, immunohistochemical) was “substantially enhanced” and the “effect on cyclin B1 positive cells in the absence of UVB” value (cyclin B1; no UVB) was “little or no effect”. For the same molecule, the “level of epidermal cyclin B1 vs UVB alone” value (cyclin B1; topical immediately after UVB 30 mJ/cm2, western blot) was “increased substantially”, the “No. of large tumors (diameter > 5 mm)” value ([5]; week 0, 1.2% CF in DERMABASE) was 0 and the “Tumor volume per mouse (all mice) (mm^3)” value ([5]; week 0, 1.2% CF in DERMABASE) was 0 mm^3. The “Tumor volume per tumor (mm^3)” value ([5]; week 0, 1.2% CF in DERMABASE) was 0 mm^3, the Tumors per mouse ([5]; week 0, 1.2% CF in DERMABASE) was 0 and the “No. of large tumors (diameter > 5 mm)” value ([5]; week 0, 3.6% CF in DERMABASE) was 0. For the same molecule, the “Tumor volume per mouse (all mice) (mm^3)” value ([5]; week 0, 3.6% CF in DERMABASE) was 0 mm^3, the “Tumor volume per tumor (mm^3)” value ([5]; week 0, 3.6% CF in DERMABASE) was 0 mm^3 and the Tumors per mouse ([5]; week 0, 3.6% CF in DERMABASE) was 0. The “No. of large tumors (diameter > 5 mm)” value ([5]; week 5, 1.2% CF in DERMABASE) was 0, the “Tumor volume per mouse (all mice) (mm^3)” value ([5]; week 5, 1.2% CF in DERMABASE) was 0.1 ± 0.0 mm^3 and the “Tumor volume per tumor (mm^3)” value ([5]; week 5, 1.2% CF in DERMABASE) was 0.5 ± 0.0 mm^3. The Tumors per mouse ([5]; week 5, 1.2% CF in DERMABASE) was 0.1 ± 0.1, the “No. of large tumors (diameter > 5 mm)” value ([5]; week 5, 3.6% CF in DERMABASE) was 0 and the “Tumor volume per mouse (all mice) (mm^3)” value ([5]; week 5, 3.6% CF in DERMABASE) was 0.1 ± 0.0 mm^3. For the same molecule, the “Tumor volume per tumor (mm^3)” value ([5]; week 5, 3.6% CF in DERMABASE) was 0.5 ± 0.0 mm^3, the Tumors per mouse ([5]; week 5, 3.6% CF in DERMABASE) was 0.2 ± 0.1 and the “No. of large tumors (diameter > 5 mm)” value ([5]; week 7, 1.2% CF in DERMABASE) was 0. For the same molecule, the “Tumor volume per mouse (all mice) (mm^3)” value ([5]; week 7, 1.2% CF in DERMABASE) was 0.4 ± 0.2 mm^3, the “Tumor volume per tumor (mm^3)” value ([5]; week 7, 1.2% CF in DERMABASE) was 1.3 ± 0.5 mm^3 and the Tumors per mouse ([5]; week 7, 1.2% CF in DERMABASE) was 0.4 ± 0.1. The “No. of large tumors (diameter > 5 mm)” value ([5]; week 7, 3.6% CF in DERMABASE) was 0, the “Tumor volume per mouse (all mice) (mm^3)” value ([5]; week 7, 3.6% CF in DERMABASE) was 0.3 ± 0.1 mm^3 and the “Tumor volume per tumor (mm^3)” value ([5]; week 7, 3.6% CF in DERMABASE) was 1.3 ± 0.7 mm^3. For the same molecule, the Tumors per mouse ([5]; week 7, 3.6% CF in DERMABASE) was 0.2 ± 0.1, the “No. of large tumors (diameter > 5 mm)” value ([5]; week 9, 1.2% CF in DERMABASE) was 0 and the “Tumor volume per mouse (all mice) (mm^3)” value ([5]; week 9, 1.2% CF in DERMABASE) was 2.0 ± 1.0 mm^3. For the same molecule, the “Tumor volume per tumor (mm^3)” value ([5]; week 9, 1.2% CF in DERMABASE) was 3.3 ± 1.5 mm^3, the Tumors per mouse ([5]; week 9, 1.2% CF in DERMABASE) was 0.6 ± 0.2 and the “No. of large tumors (diameter > 5 mm)” value ([5]; week 9, 3.6% CF in DERMABASE) was 0. The “Tumor volume per mouse (all mice) (mm^3)” value ([5]; week 9, 3.6% CF in DERMABASE) was 0.8 ± 0.5 mm^3, the “Tumor volume per tumor (mm^3)” value ([5]; week 9, 3.6% CF in DERMABASE) was 1.9 ± 1.1 mm^3 and the Tumors per mouse ([5]; week 9, 3.6% CF in DERMABASE) was 0.4 ± 0.1. The “No. of large tumors (diameter > 5 mm)” value ([5]; week 11, 1.2% CF in DERMABASE) was 0, the “Tumor volume per mouse (all mice) (mm^3)” value ([5]; week 11, 1.2% CF in DERMABASE) was 3.7 ± 1.4 mm^3 and the “Tumor volume per tumor (mm^3)” value ([5]; week 11, 1.2% CF in DERMABASE) was 3.5 ± 1.0 mm^3. For the same molecule, the Tumors per mouse ([5]; week 11, 1.2% CF in DERMABASE) was 1.1 ± 0.3, the “No. of large tumors (diameter > 5 mm)” value ([5]; week 11, 3.6% CF in DERMABASE) was 0 and the “Tumor volume per mouse (all mice) (mm^3)” value ([5]; week 11, 3.6% CF in DERMABASE) was 1.6 ± 0.6 mm^3. For the same molecule, the “Tumor volume per tumor (mm^3)” value ([5]; week 11, 3.6% CF in DERMABASE) was 1.3 ± 0.4 mm^3 and the Tumors per mouse ([5]; week 11, 3.6% CF in DERMABASE) was 1.2 ± 0.3.
